The text below walks through data of patent US11401255B2, “Small molecule activators of Parkin enzyme function” (Mayo Foundation for Medical Education and Research, priority 2016, dated 2022).

One series has as its target hERG channel (Homo sapiens (Human), UniProt Q12809). The source says:
Fluorescence polarization (FP) readout technology is based on the observation that when a small fluorescent molecule (the tracer) is excited by the polarized light, the emitted light is largely depolarized because of the rapid rotation of the molecule in the solution during its fluorescence lifetime. The hERG predictor assay provides valuable information about the possible binding of test compounds to the potassium channel and potential QT prolongation on […].
All experiments were performed using the Predictor™ hERG Fluorescence Polarization Assay in accordance with the manufacturer's protocol PV5365 (Invitrogen, Carlsbad, Calif.).
The hERG reaction was performed by incubating the tracer and membranes with hERG channel for 2-4 hours in the solution. The fluorescence polarization was maximal when nothing interfered with the reaction of the tracer and hERG membranes (minimal tracer rotation). But when a tested compound competed with the tracer for the hERG channel, the polarization of emitted light lowered due to the ability of free unbound tracer to rotate rapidly in the solution.
All test points for the compounds were performed in quadruplicates. Three dilutions of the tested compounds were assessed—1 μM, 5 μM and 20 μM.

A further series has as its target FLAG-Parkin C431S (Homo sapiens (Human), UniProt O60260, C431S). Briefly: Ub-charging of FLAG-Parkin C431S (MSD assay). Format: cell-based. Conditions: 5 μM, 2 h before 3.5 μM CCCP. The method, then: Ubiquitin charging of Parkin was monitored by ELISA-like MesoScale Discovery assay that uses electrochemiluminescence. Plates were coated with Flag antibody and incubated with lysates from 3×FLAG-Parkin C431S cells that had been pretreated for 2 h with 5 μM of Compounds 1, 2, 3, 4, and 31 or DMSO (left, −) before incubating them for another 2 h with (+) or without (−) low-dose (3.5 μM) CCCP. Positive control (PC) cells were treated with 10 μM CCCP. After washing, pS65-Ub antibody was added together with a sulfo-tagged anti-rabbit antibody. Values were normalized to the PC (10 μM CCCP) and negative control (−). Statistical analysis was performed by one-way ANOVA with Tukey's post-hoc test. ****, p<0.0001.
For ELISA assays, 96-well standard bind plates (Mesoscale Discovery) were coated with antibodies (FLAG, Sigma, F3165 or pSer65-Ub, both 1:250) in bicarbonate buffer (15 mM Na2CO3, 35 mM NaHCO3, pH 9.4) overnight and blocked with 5% BSA in TBS containing 0.02% Tween-20 (TBST). For Parkin Ub-charging, cell lysates were prepared in RIPA buffer (50 mM Tris pH 8.0, 150 mM NaCl, 1% NP-40, 0.5% deoxycholate, 0.1% sodium dodecyl sulphate (SDS)). 25 μg of lysates were added to the plates and incubated for 2 h. To quantify pSer65-Ub, cell lysates were prepared in NP-40 buffer (50 mM Tris pH 7.6, 150 mM NaCl, and 0.5% NP-40) and diluted to 0.18% NP-40 with 1% BSA in TBST. 6.25 μg of lysates were added to the plates overnight and incubated at 4° C. After primary antibody incubation, plates were washed and incubated with mouse detection antibodies (Ub, CST, #3933 or Ub, Millipore, MAB 150 both 1:250) for 1 h at RT. Secondary sulfo-tag conjugated antibodies were incubated for 1 h in 1% BSA/TBST before plates were measured in 2× READ buffer using a Mesoscale Discovery Sector Imager 2400 (both Mesoscale Discovery).

A further series concerns the target Parkin (Homo sapiens (Human), UniProt O60260). Briefly: Primary HCI assay of EGFP-Parkin translocation to mitochondria. Format: cell-based. Conditions: for activity in EGFP-Parkin translocation to damaged mitochondria: 1 μM; for pEC50: primary assay screen, Parkin translocation to mitochondria. The method, then:
GFP-Parkin is localized throughout the cell in unstressed cells but translocates to mitochondria when the mitochondrial membrane potential is compromised and Parkin is activated. After automated image acquisition of fixed cells, regions of interest of each cell were defined with the analysis software. […] To quantify the relocalization of GFP-Parkin to mitochondria, the ratio of the GFP intensity in the cytoplasm and the nucleus was calculated. Under non-stressed condition, this ratio is about 1. FIG. 1B is a bar graph showing the results of the assay with a Z factor (Z′) of 0.5-0.8, which indicates its robustness and usefulness as a screening assay. Validation of the assay has been performed by using PINK1 siRNA.
FIGS. 2A-2C show a primary HCI assay with CCCP titration. FIG. 2A is a graphic description of the primary HCI assay of EGFP-Parkin translocation. HeLa cells stably expressing GFP-Parkin were seeded with 1350 cells per well in 384-well plates (25 μL per well). Cells were allowed to attach overnight before drug was added 2× concentrated in a volume of 25 μL in triplicates. After 2 h, 50 μL of a 2× low-dose CCCP (yielding a final concentration of 3.5 μM CCCP) was added to all wells that contained test compounds and for the negative control. For positive control wells, CCCP was added in a final concentration of 10 μM. After 2 h incubation with CCCP, cells were fixed and labeled with Hoechst for at least 1 h before cells were imaged. […] Values were being normalized to negative and positive control values and plotted as % activity. Z′ was calculated for quality control. Positive controls were indicated in green, negative control wells in red. Drugs that lead to more than 50% activity are considered positive (blue).
Functional testing of compounds was performed using an established primary HCI assay for Parkin translocation, which correlates well with enzymatic activation (Fiesel et al., J. Cell Science (2014) 127:3488-3504; Fiesel et al., Human Mutation (2015) 36:774-786). In brief, 1400 HeLa cells stably expressing EGFP-Parkin were seeded into optical 384-well plates (Greiner BioOne) in 25 μL media and allowed to adhere for 40 h. Compounds 1, 2, 3, 4, and 31 were added to the plate as 2× concentrated stocks. Control wells were treated with equal volume of DMSO in media. After 2 h, unless otherwise stated, CCCP was added as 2× concentrated stock with a final assay concentration of 10 μM for PC wells and 3.5 μM for test and NC wells. This low dose of CCCP was experimentally determined by a dose response curve of CCCP to result in no Parkin translocation (FIG. 13). After another 2 h, cells were fixed in 4% paraformaldehyde for 10 min and stained with Hoechst 33342 (1:5000, Invitrogen) before plates were imaged and analyzed.
Image acquisition was performed on a BD Pathway 855 with the Attovision V1.6 software (BD Biosciences). Wells were imaged with a 20× objective using a 2×2 montage with laser autofocus. EGFP exposure time was 0.0175 sec, Hoechst 0.0015 sec. Raw images were not processed and directly analyzed using a build-in ‘RING—2 output’ algorithm. Values were exported and normalized using JMP 11 software and transferred to GraphPad Prism 7 for quality control, graphing and curve fitting for DRCs with a variable slope using four parameters. […] Values were normalized to both PC and NC values from 24 wells each per plate and the Z′ score was calculated. Plates with Z′<0.5 were repeated.

pEC50: −log10 of the molar value. Like-named read-outs stand apart in the source and are kept apart here.

Chain of hERG channel (Q12809 whole entry): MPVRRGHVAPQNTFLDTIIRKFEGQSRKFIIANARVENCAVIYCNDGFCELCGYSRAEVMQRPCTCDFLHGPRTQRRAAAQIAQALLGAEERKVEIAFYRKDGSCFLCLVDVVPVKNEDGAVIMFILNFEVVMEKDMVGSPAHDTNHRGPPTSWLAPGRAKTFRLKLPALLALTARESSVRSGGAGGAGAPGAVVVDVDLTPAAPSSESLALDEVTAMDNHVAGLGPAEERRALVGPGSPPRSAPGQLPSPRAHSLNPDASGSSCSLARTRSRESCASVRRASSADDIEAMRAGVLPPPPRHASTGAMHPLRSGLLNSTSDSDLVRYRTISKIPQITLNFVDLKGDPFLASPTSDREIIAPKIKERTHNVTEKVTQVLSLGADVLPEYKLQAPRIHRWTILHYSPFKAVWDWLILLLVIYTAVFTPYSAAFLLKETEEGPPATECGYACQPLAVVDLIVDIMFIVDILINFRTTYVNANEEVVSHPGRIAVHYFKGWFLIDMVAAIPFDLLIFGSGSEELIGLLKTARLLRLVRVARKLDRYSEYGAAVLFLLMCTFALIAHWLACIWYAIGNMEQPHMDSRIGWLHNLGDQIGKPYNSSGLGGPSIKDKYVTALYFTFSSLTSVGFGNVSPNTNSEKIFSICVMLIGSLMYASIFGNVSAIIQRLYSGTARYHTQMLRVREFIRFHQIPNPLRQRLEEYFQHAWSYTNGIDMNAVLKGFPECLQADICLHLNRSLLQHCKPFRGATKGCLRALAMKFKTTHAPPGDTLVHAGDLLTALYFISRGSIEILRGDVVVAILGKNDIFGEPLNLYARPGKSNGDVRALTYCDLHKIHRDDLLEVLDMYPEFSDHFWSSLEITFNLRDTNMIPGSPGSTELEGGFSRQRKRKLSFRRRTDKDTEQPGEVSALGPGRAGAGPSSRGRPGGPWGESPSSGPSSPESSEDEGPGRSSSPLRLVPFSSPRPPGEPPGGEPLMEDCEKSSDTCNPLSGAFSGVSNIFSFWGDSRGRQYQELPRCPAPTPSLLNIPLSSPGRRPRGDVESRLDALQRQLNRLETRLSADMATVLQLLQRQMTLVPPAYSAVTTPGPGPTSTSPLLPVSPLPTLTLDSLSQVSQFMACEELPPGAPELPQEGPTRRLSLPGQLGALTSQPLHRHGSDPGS

As a reminder, the pEC50 is −log10 of the EC50, conventionally taken in molar units. For `O=C(Cn1cnc2c1CCCC2)Nc1ccc(-c2ccccc2)cc1` [Compound 1], the “Binding values, % Mean” value on hERG channel (1 μM) came out at 83%; at hERG channel (5 μM), 99%; at hERG channel (20 μM) it was 103%. The “Ub-charging of FLAG-Parkin C431S (MSD assay)” value (“Ub-charging” below) on FLAG-Parkin C431S is “enhanced Ub-charging”. The “activity in EGFP-Parkin translocation to damaged mitochondria” value (“activity in EGFP-Parkin translocation” for short) at Parkin is recorded as “showed activity”. This molecule showed a pEC50 on Parkin of 6.43.

Regarding `O=C(Cn1ccnc1-c1ccccn1)Nc1ccc(-c2ccccc2)cc1` [Compound 4], the figures for the “Binding values, % Mean” value on hERG channel (1 μM), on hERG channel (5 μM) and at hERG channel (20 μM) were 26%, 27% and 22%, respectively. For the same molecule, the “Ub-charging” value on FLAG-Parkin C431S is “enhanced Ub-charging”. Further, the “activity in EGFP-Parkin translocation” value at Parkin is listed as “showed activity”. The molecule also showed a pEC50 at Parkin of 6.79.

Take `CC(C)(C)Sc1ccc(NC(=O)Cn2ccnc2)cc1` [Compound 3]: the “Binding values, % Mean” value on hERG channel (1 μM) is 41%; at hERG channel (5 μM), 115%; on hERG channel (20 μM), 99%. In addition, the “Ub-charging” value at FLAG-Parkin C431S is listed as “enhanced Ub-charging”. Besides, the “activity in EGFP-Parkin translocation” value at Parkin is “showed activity”. At Parkin, this molecule had a negative-log EC50 (pEC50) of 6.39.

`CC(C)c1nccn1CC(=O)Nc1ccc(-c2ccccc2)cc1` [Compound 2]: the results for the “Binding values, % Mean” value on hERG channel (1 μM), on hERG channel (5 μM) and on hERG channel (20 μM) were 47%, 74% and 91%, respectively. For the same molecule, the “Ub-charging” value on FLAG-Parkin C431S is reported as “enhanced Ub-charging”. In addition, the “activity in EGFP-Parkin translocation” value at Parkin is “showed activity”. The molecule also gave a pEC50 on Parkin of 6.26.

`Cc1nc2c(c(N3CCCN(Cc4ccccc4)CC3)n1)CCCC2` [Compound 31]: the “Binding values, % Mean” value worked out at 45% on hERG channel (1 μM), 73% at hERG channel (5 μM) and 88% at hERG channel (20 μM). Also, the “Ub-charging” value on FLAG-Parkin C431S is “enhanced Ub-charging”. Besides, at Parkin, the “activity in EGFP-Parkin translocation” value is listed as “showed activity”. The molecule also had a pEC50 at Parkin of 6.00.
